From patent US12384753B2, “17-beta-hydroxysteroid dehydrogenase type 13 inhibitors and methods of use thereof” (Enanta Pharmaceuticals, Inc., priority 2021, dated 2025)

Each compound was assayed against Recombinant human HSD17B13 (Homo sapiens (Human), UniProt Q7Z5P4) (assay: HSD17B13 rapid-fire mass spectrometry assay (RF/MS assay)). Conditions: inhibition of HSD17B13; LTB4 10 μM, NAD+ 0.5 mM, RT 3 h; IC50 ranges A-E.
Format: biochemical
Text: HSD17B13 rapid-fire mass spectrometry assay (RF/MS assay). Recombinant human HSD17B13 was expressed and purified from sf9 cells at Charles River Labs (Saffron Walden, UK). Leukotriene B4 (Catalog #71160-24-2) and 12-oxoleukotriene B4 (Catalog #20140) were purchased from Cayman Chemicals (Ann Arbor, Michigan.). NAD+ (Catalog #N8285), BSA (Catalog #A7030), DMSO (Catalog #D2650), and Tween-20 (Catalog #11332465001) were purchased from Sigma (St. Louis, MO). Formic acid (Catalog #28905) was from ThermoFisher Scientific and 384 deep well PP microplates (Catalog #784261) were from Greiner Bio-One. In a typical IC50 assay performed in a 384w PP microplate, test compounds (0-100 μM) were incubated with HSD17B13 (80 nM), LTB4 (10 μM), and NAD^+ (0.5 mM) in 10 μL assay buffer (20 mM Tris (pH 7.5), BSA (0.005%), and Tween-20 (0.01%)) at RT for 3 h. The assays were quenched by adding 20 μL of 0.15% aqueous formic acid and the plates were frozen at −80° C. RF/MS analysis was performed at PureHoney Technologies (Billerica, MA) on a RapidFire RF300 system (Agilent Technologies, Inc.) coupled to an API 4000 triple quadrupole mass spectrometer (Sciex) equipped with Agilent RapidFire cartridge type A (C4). The mobile phase was 0.09% formic acid and 0.01% trifluoracetic acid in water (Buffer A) and 0.09% formic acid and 0.01% trifluoracetic acid in 80% aqueous acetonitrile (Buffer B). The RapidFire method conditions were the following: 250 ms aspirate, 3000 ms load/desalt, 4000 ms elute, and 500 ms re-equilibrate. RF-MS/MS was performed in negative polarity (−4500 V), the source temperature was 650° C., and gas 1 and gas 2 settings for nitrogen were set to 50. The curtain gas and collision gas were also nitrogen and were set to 20 and 12, respectively. Leukotriene B4 (335.3) and 12-oxoLeukotriene B4 (333.3) SRM transitions were optimized with Discovery Quant software and extracted ion counts for these analytes were determined.
Data Analysis. HSD17B13 enzyme activity was measured as percent conversion of extracted ion counts and normalized to high and low controls to determine percent residual activity at various concentrations of test compounds. Data were fitted to normalized activity (variable slope) versus concentration fit in GraphPad Prism 7 to determine IC50. All experiments were run in duplicates.
By using above method, the inhibition of HSD17B13 was evaluated for the compounds of Formula (I). IC50 ranges are as follows: A=IC50<0.100 μM; B=0.100 μM<IC50<0.500 μM; C=0.500 μM<IC50<1 μM; D=1 μM<IC50<100 μM; E=IC50>100 μM

Sequence of Recombinant human HSD17B13 (Q7Z5P4 20-300): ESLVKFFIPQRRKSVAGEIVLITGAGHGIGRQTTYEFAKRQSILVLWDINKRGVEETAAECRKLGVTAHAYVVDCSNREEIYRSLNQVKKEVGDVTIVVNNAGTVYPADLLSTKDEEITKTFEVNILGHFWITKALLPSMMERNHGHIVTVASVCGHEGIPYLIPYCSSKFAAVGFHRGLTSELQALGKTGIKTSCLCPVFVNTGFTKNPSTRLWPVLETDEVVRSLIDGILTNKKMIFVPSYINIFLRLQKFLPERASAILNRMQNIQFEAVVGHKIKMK

First: O=C(O)c1ccc(NS(=O)(=O)c2cnc(-c3ccc(F)cc3)s2)cc1 [Example 60, 4-((2-(4-fluorophenyl)thiazole)-5-sulfonamido)benzoic acid]
Second: O=S(=O)(Nc1ccc(O)cc1)c1cnc(-c2ccc(F)cc2)s1 [Example 108]
The IC50 of the first is lower: 0.5 to 1 µM for the first, 1 to 100 µM for the second. The first is the more potent here.

`O=C(O)c1cc(O)c(NS(=O)(=O)c2cnc(-c3ccc(F)cc3)s2)cc1F` [Example 61] and `O=C(O)c1ccc(NS(=O)(=O)c2cnc(-c3ccc(F)cc3)s2)c(O)c1F` [Example 62] cannot be ordered by IC50: < 0.1 µM for the first, < 0.1 µM for the second.

First: O=C(O)c1ccc(NS(=O)(=O)c2csc(-c3ccc(O)cc3)n2)cc1 [Example 63]
Second: O=C(O)c1ccc(NS(=O)(=O)c2csc(-c3ccc(O)cc3)n2)c(O)c1 [Example 112]
The IC50 of the first is higher: 0.5 to 1 µM for the first, 0.1 to 0.5 µM for the second. The second is the more potent here.

First: O=C(O)C1CCN(S(=O)(=O)c2cnc(-c3ccc(F)cc3)s2)CC1 [Example 64]
Second: O=C(O)C1CCCN(S(=O)(=O)c2cnc(-c3ccc(F)cc3)s2)C1 (stereo not shown) [Example 65]
The IC50 of the first is lower: 1 to 100 µM for the first, > 100 µM for the second.

First: O=C(O)C1CCC(NS(=O)(=O)c2cnc(-c3ccc(F)cc3)s2)CC1 (stereo not shown) [Example 66]
Second: O=C(O)[C@H]1CC[C@H](NS(=O)(=O)c2cnc(-c3ccc(F)cc3)s2)CC1 [Example 67]
The IC50 of the first is higher: > 100 µM for the first, 1 to 100 µM for the second.

First: O=C(O)C12CC(NS(=O)(=O)c3cnc(-c4ccc(F)cc4)s3)(C1)C2 [Example 68]
Second: O=C(O)c1cc(NS(=O)(=O)c2cnc(-c3ccc(F)cc3)s2)cs1 [Example 75]
The IC50 of the first is higher: > 100 µM for the first, 1 to 100 µM for the second.

`COc1cc(C(=O)NO)ccc1NS(=O)(=O)c1cnc(-c2ccc(F)cc2)s1` [Example 69, 4-((2-(4-fluorophenyl)thiazole)-5-sulfonamido)-N-hydroxy-3-methoxybenzamide] and `CONC(=O)c1ccc(NS(=O)(=O)c2cnc(-c3ccc(F)cc3)s2)c(OC)c1` [Example 70] fall in the same range of IC50: 1 to 100 µM for the first, 1 to 100 µM for the second.

`COc1cc(C(=O)N(C)O)ccc1NS(=O)(=O)c1cnc(-c2ccc(F)cc2)s1` [Example 71] and `COc1cc(C(N)=O)ccc1NS(=O)(=O)c1cnc(-c2ccc(F)cc2)s1` [Example 120] fall in the same range of IC50: 1 to 100 µM for the first, 1 to 100 µM for the second.

`COc1nc(C(=O)O)ccc1NS(=O)(=O)c1cnc(-c2ccc(F)cc2)s1` [Example 74] and `COc1nc(C(=O)O)cnc1NS(=O)(=O)c1cnc(-c2ccc(F)cc2)s1` [Example 84] fall in the same range of IC50: 1 to 100 µM for the first, 1 to 100 µM for the second.

First: N#Cc1cc(C(=O)O)ccc1NS(=O)(=O)c1cnc(-c2ccc(F)cc2)s1 [Example 76]
Second: CS(=O)(=O)c1cc(C(=O)O)ccc1NS(=O)(=O)c1cnc(-c2ccc(F)cc2)s1 [Example 115]
The IC50 of the first is lower: 0.5 to 1 µM for the first, 1 to 100 µM for the second. The first is the more potent here.

Compared with `O=C(O)c1ccc(NS(=O)(=O)c2cnc(-c3ccc(F)cc3)s2)s1` [Example 77], `O=C(O)c1cc(NS(=O)(=O)c2cnc(-c3ccc(F)cc3)s2)co1` [Example 86] is lower in IC50: 1 to 100 µM for the first, 0.1 to 0.5 µM for the second.

Compared with `COc1cc(C(=O)O)c(Cl)cc1NS(=O)(=O)c1cnc(-c2ccc(F)cc2)s1` [Example 78], `COc1cc(O)ccc1NS(=O)(=O)c1cnc(-c2ccc(F)cc2)s1` [Example 110] is higher in IC50: 0.5 to 1 µM for the first, 1 to 100 µM for the second. The first is the more potent here.

`COc1cc(C(=O)O)ccc1NS(=O)(=O)c1cnn(-c2ccc(F)cc2)c1` [Example 79] and `COc1cc(C(=O)O)ccc1NS(=O)(=O)c1cnn(-c2ccc(F)cc2)c1C` [Example 80] fall in the same range of IC50: 1 to 100 µM for the first, 1 to 100 µM for the second.

First: COc1cc(C(=O)O)ccc1NS(=O)(=O)c1cnc(-c2ccccc2)o1 [Example 81]
Second: COc1cc(C(=O)O)ccc1NS(=O)(=O)c1csc(-c2ccccc2)n1 [Example 102]
The IC50 of the first is higher: 0.1 to 0.5 µM for the first, < 0.1 µM for the second.

`O=C(O)c1ccc(NS(=O)(=O)c2cnc(-c3ccc(F)cc3)s2)c2ncccc12` [Example 82] and `O=C(O)c1ccc(NS(=O)(=O)c2cnc(-c3ccc(F)cc3)s2)c2ccccc12` [Example 87] fall in the same range of IC50: 1 to 100 µM for the first, 1 to 100 µM for the second.

`O=C(O)c1cnc(NS(=O)(=O)c2cnc(-c3ccc(F)cc3)s2)nc1` [Example 83] and `O=C(O)c1cnc(NS(=O)(=O)c2cnc(-c3ccc(F)cc3)s2)cn1` [Example 90] fall in the same range of IC50: 1 to 100 µM for the first, 1 to 100 µM for the second.

First: COc1cc(C(=O)O)cnc1NS(=O)(=O)c1cnc(-c2ccc(F)cc2)s1 [Example 85]
Second: O=C(O)c1ncc(NS(=O)(=O)c2cnc(-c3ccc(F)cc3)s2)cn1 [Example 106]
The IC50 of the first is lower: 0.1 to 0.5 µM for the first, 1 to 100 µM for the second.

Compared with `COc1cc(C(=O)O)ccc1NS(=O)(=O)c1csc(-c2ccc(F)c3ccccc23)n1` [Example 88], `COc1cc(C(=O)O)ccc1NS(=O)(=O)c1csc(-c2ccccc2F)n1` [Example 96] is lower in IC50: 1 to 100 µM for the first, 0.1 to 0.5 µM for the second. The second is the more potent here.

First: COc1cc(C(=O)O)ccc1NS(=O)(=O)c1csc(-c2ccc(F)c3ccoc23)n1 [Example 89]
Second: COc1cc(C(=O)O)ccc1NS(=O)(=O)c1csc(-c2cccc(F)c2)n1 [Example 95]
The IC50 of the first is higher: 1 to 100 µM for the first, 0.1 to 0.5 µM for the second.

First: Cn1nc(C(=O)O)cc1NS(=O)(=O)c1cnc(-c2ccc(F)cc2)s1 [Example 91]
Second: O=C(O)c1cc(NS(=O)(=O)c2cnc(-c3ccc(F)cc3)s2)n(-c2ccccc2)n1 [Example 92]
The IC50 of the first is higher: > 100 µM for the first, 1 to 100 µM for the second.

`O=C(O)c1ccc2nc(NS(=O)(=O)c3cnc(-c4ccc(F)cc4)s3)oc2c1` [Example 93] and `O=C(O)c1ccc2nc(NS(=O)(=O)c3cnc(-c4ccc(F)cc4)s3)sc2c1` [Example 94] fall in the same range of IC50: 1 to 100 µM for the first, 1 to 100 µM for the second.

`COc1cc(C(=O)O)ccc1NS(=O)(=O)c1csc(-c2ccc(C)cc2)n1` [Example 97] and `COc1cc(C(=O)O)ccc1NS(=O)(=O)c1csc(-c2ccc(O)cc2)n1` [Example 128] fall in the same range of IC50: 0.1 to 0.5 µM for the first, 0.1 to 0.5 µM for the second.

Compared with `COc1cc(C(=O)O)ccc1NS(=O)(=O)c1csc(-c2ccc(C(F)(F)F)cc2)n1` [Example 98], `COc1cc(C(=O)O)ccc1NS(=O)(=O)c1csc(-c2cccc(C(F)(F)F)c2)n1` [Example 126] is higher in IC50: 0.1 to 0.5 µM for the first, 0.5 to 1 µM for the second. The first is the more potent here.

First: COc1ccc(-c2nc(S(=O)(=O)Nc3ccc(C(=O)O)cc3OC)cs2)cc1 [Example 99]
Second: COc1cc(C(=O)O)ccc1NS(=O)(=O)c1csc(-c2ccc(C(=O)O)cc2)n1 [Example 117]
The IC50 of the first is lower: 0.1 to 0.5 µM for the first, 1 to 100 µM for the second. The first is the more potent here.

Compared with `COc1cc(C(=O)O)ccc1NS(=O)(=O)c1csc(-c2ccncc2)n1` [Example 100], `COc1cc(C(=O)O)ccc1NS(=O)(=O)c1csc(-c2cccc(C)c2)n1` [Example 124] is lower in IC50: 1 to 100 µM for the first, 0.5 to 1 µM for the second. The second is the more potent here.

First: COc1cc(C(=O)O)ccc1NS(=O)(=O)c1csc(-c2ccn(C)n2)n1 [Example 101]
Second: COc1cc(C(=O)O)ccc1NS(=O)(=O)c1csc(-c2ccccc2C)n1 [Example 125]
The IC50 of the first is higher: 1 to 100 µM for the first, 0.5 to 1 µM for the second.

`COc1cc(C(=O)O)ccc1S(=O)(=O)Nc1csc(-c2ccccc2)n1` [Example 103] and `COc1cc(C(=O)O)ccc1NS(=O)(=O)c1csc(-c2ccccc2C(F)(F)F)n1` [Example 127] fall in the same range of IC50: 0.5 to 1 µM for the first, 0.5 to 1 µM for the second.

First: O=C(O)c1cnc(NS(=O)(=O)c2cnc(-c3ccc(F)cc3)s2)o1 [Example 104]
Second: O=C(O)c1ccc(NS(=O)(=O)c2cnc(-c3ccc(F)cc3)s2)cc1O [Example 107]
The IC50 of the first is higher: 1 to 100 µM for the first, 0.5 to 1 µM for the second. The second is the more potent here.

`COc1cc(C(=O)O)ccc1N(C)S(=O)(=O)c1cnc(-c2ccc(F)cc2)s1` [Example 105] and `COc1ccc(NS(=O)(=O)c2cnc(-c3ccc(F)cc3)s2)cc1Cl` [Example 113] fall in the same range of IC50: 1 to 100 µM for the first, 1 to 100 µM for the second.

`O=S(=O)(Nc1ccc(O)cc1O)c1cnc(-c2ccc(F)cc2)s1` [Example 109] and `O=S(=O)(Nc1ccc(O)c(Cl)c1)c1cnc(-c2ccc(F)cc2)s1` [Example 114] fall in the same range of IC50: 1 to 100 µM for the first, 1 to 100 µM for the second.

`O=S(=O)(Nc1ccc(Br)cc1C(F)F)c1cnc(-c2ccc(F)cc2)s1` [Example 111] and `COc1cc(OC(F)F)ccc1NS(=O)(=O)c1cnc(-c2ccc(F)cc2)s1` [Example 122] fall in the same range of IC50: 1 to 100 µM for the first, 1 to 100 µM for the second.

`O=C(O)c1ccc(NS(=O)(=O)c2cnc(-c3ccc(F)cc3)s2)c2c1OCCO2` [Example 116] and `COc1cc(C#N)ccc1NS(=O)(=O)c1cnc(-c2ccc(F)cc2)s1` [Example 123] fall in the same range of IC50: 1 to 100 µM for the first, 1 to 100 µM for the second.

First: O=S(=O)(O)c1ccc(NS(=O)(=O)c2cnc(-c3ccc(F)cc3)s2)cc1 [Example 118]
Second: COc1cc(S(N)(=O)=O)ccc1NS(=O)(=O)c1cnc(-c2ccc(F)cc2)s1 [Example 119]
The IC50 of the first is higher: > 100 µM for the first, 1 to 100 µM for the second.

For `CNS(=O)(=O)c1cc(OC)c(NS(=O)(=O)c2cnc(-c3ccc(F)cc3)s2)cc1C` [Example 121], the IC50 was 1 to 100 µM.
